From patent US20080044484A1, “Use of polymeric nanoparticles for vaccine delivery” (THE REGENTS OF THE UNIVERSITY OF CALIFORNIA, priority 2004, published 2008) come the findings set out here.

Type in all cases: cell-based, human
Test [1] has as its system ICP47-transfected cells MCF7. The test is described as follows: Functional blockade of TAP by ICP47, 51Cr-release from peptide-loaded cells. Particulars: for Percent 51Cr Released From ICP47-transfected MCF7 cells loaded with the construct: CTL reactive against the corresponding HER2/neu peptide, 3 days after peptide loading, 6-hour assay. The source says: Another aspect in these studies was to determine the mechanisms of enhancement of the antigen presentation by the fusion peptides in human tumor cell lines. Therefore, a new test system was developed utilizing the Herpes Simplex virus (HSV) protein ICP47. ICP47 is a cytoplasmic protein, which interferes with antigen presentation by physically associating with TAP within the cell and inhibiting peptide transport across the ER-membrane. By transfecting the ICP47 gene into several cancer cell lines a novel system for screening different fusion peptides for TAP-independent translocation of peptide antigens through the ER-membrane was generated.
The expression of these antigens was detected by ^51Cr-release assays.

In test [2] the test system is T2 cells. The test is described as follows: 51Cr-release assay, T2 cells loaded or pulsed with signal sequence constructs, at periods after loading. Particulars: loading into the cytosol; days 1-8 after loading.
Source text: By “loading” of the fusion peptides into the cytosol of T2 cells, cancer cells and dendritic cells is meant use of a technology called “osmotic lysis of pinocytic vesicles.” T2 cells were exposed to hypertonic medium containing the peptide constructs. Pinocytic vesicles form in this medium, and because of their increased internal osmotic pressure, they break in the cytosol when the cells are placed in hypotonic culture medium.
The induction of CTL in human PBMC was monitored in a conventional ^51Cr-labeling release assay. Briefly, peptide-pulsed TAP^−/HLA-A2.1^+ human T2 cells were incubated with 10 μg of HER2/neu peptides or the MART-1 control peptide for 90 min during labeling with ^51Cr. After washing, the target cells were added to serially diluted effectors in 96-well microplates. After a 6-h incubation at 37° C., supernatants were harvested and counted in a gamma counter. Results are expressed as the percentage of specific lysis and determined as follows: [(experimental cpm−spontaneous cpm)/(maximum cpm−spontaneous cpm)]×100.
Peptide-loaded or pulsed T2 cells were tested for their ability to present HER2/neu peptides at different periods of time after loading or pulsing.
Test [3] relates to T2 cells. The test is described as follows: IFNγ release by CTL (ELISA) after incubation with peptide-loaded T2 cells. As to conditions: CTL elicited with the corresponding HER2/neu peptide, 20 h, 10^5 CTL/well. The method, then: In interferon gamma-release assays, 10^5 HER2/neu-specific CTL were co-incubated with 10^5 peptide-loaded T2 cells for 20 hours at 37° C. The concentrations of human interferon gamma in co-cultured supernatants were then determined by ELISA.

Test [4] deals with breast cancer cells MDA-MB-231. The test is described as follows: 51Cr-release assay, MDA-MB-231 cells loaded or pulsed with signal sequence constructs. Particulars: loading; days 1-8 after loading.
Procedure: ^51Cr-release assays were used to test to see if the low HER2/neu-expressing breast cancer cells MDA-MB-231 can be recognized more efficiently by the HER2/neu-specific CTL after loading with the fusion peptides.
The lysis of the tumor cells by the HER2/neu-specific CTL was monitored in a conventional ^51Cr-labeling release assay. Briefly, peptide-loaded tumor cells were added to serially diluted effectors in 96-well microplates. After a 6-h incubation at 37° C., supernatants were harvested and counted in a gamma counter. Results are expressed as the percentage of specific lysis and determined as follows: [(experimental cpm−spontaneous cpm)/(maximum cpm−spontaneous cpm)]×100.
Peptide-loaded breast cancer cells MDA-MB-231 were tested for their ability to present HER2/neu peptides at different periods of time after loading or pulsing.
Test [5] has as its system breast cancer cells MDA-MB-231. The test is described as follows: IFNγ release by CTL (ELISA) after incubation with peptide-loaded MDA-MB-231 cells. As to conditions: CTL elicited with the corresponding HER2/neu peptide, 20 h, 10^5 CTL/well. As for the experimental part:
In interferon gamma release assays, 10^5 HER2/neu-specific CTL were co-incubated with 10^5 peptide-loaded tumor cells for 20 hours at 37° C. The concentration of human interferon gamma in co-cultured supernatants was then determined by ELISA.

The test system of test [6] is peptide-loaded MDA-MB-231 cells. The test is described as follows: Mechanisms of peptide loading: acid stripping, pronase, Brefeldin A, 51Cr-release. An excerpt: To distinguish between loading of the peptides into the cytosol and simple binding of these peptides to the surface MHC molecules several approaches were used. First, β2-microglobulin was removed from the surface of peptide-loaded tumor cells by acid stripping. […] Second, pronase was used for complete enzymatic digestion of HLA molecules on the cell surface after loading in order to be able to detect the appearance of new internally formed HLA-peptide complexes on the cell surface, but not pulsing of the cells. Third, Brefeldin A (BFA), a metabolite of the fungus Eupenicillium brefeldianum, was used which specifically blocks protein transport from the ER to Golgi apparatus.
These experiments confirmed that the antigenic peptides were introduced into the cytosol of the cells, resulting in a prolonged and more efficient antigen presentation.

Turning to “M A IISAVVGIL A A A A A G (MAIISAVVGILAAAAAG) [HER654-662-IN-AF]”, the “Restoration of antigen presentation in ICP47-transfected breast cancer cells” value in test [1] (51Cr-release) is reported as “able to restore the antigen presentation”. Also, the “Percent 51Cr Released From ICP47-transfected MCF7 cells loaded with the construct” value came out at 22% in test [1] (E:T 20:1) and 66% in test [1] (E:T 40:1). For the same compound, in the test on T2 cells [2], the “Recognition by CTL of T2 cells loaded with the peptide (51Cr-release)” value is reported as “effective”. Further, the “Release of IFNγ by CTL, T2 cells loaded with the peptide” value in the test on T2 cells [3] (Day 1 after peptide loading) came out at 3321 pg/mL; in the test with T2 cells [3] (Day 3 after peptide loading), 2981 pg/mL; with T2 cells [3] (Day 5 after peptide loading), 1892 pg/mL; in the test with T2 cells [3] (Day 8 after peptide loading) it was 881 pg/mL. Besides, the “Recognition by CTL of MDA-MB-231 cells loaded with the peptide (51Cr-release)” value in test [4] is recorded as “effective”. The “Release of IFNγ by CTL, MDA-MB-231 cells loaded with the peptide” value was determined as 3321 pg/mL in test [5] (Day 1 after peptide loading), 2994 pg/mL in test [5] (Day 3 after peptide loading), 1933 pg/mL in test [5] (Day 5 after peptide loading) and 899 pg/mL in test [5] (Day 8 after peptide loading).

As to `C[C@H]1CCC/C=C/[C@@H]2C[C@H](O)C[C@H]2[C@H](O)/C=C/C(=O)O1` [Brefeldin A], in test [6], the “Blocking of recognition of peptide-loaded tumor cells by HER2/neu-specific CTL” value is reported as “specifically blocks the recognition”.
